Data published in ChEMBL document CHEMBL4699433, “Rational design, synthesis and testing of novel tricyclic topoisomerase inhibitors for the treatment of bacterial infections part 2” (RSC Med Chem, 2020).
Converted amounts (≈) assume the structure as drawn.

Key:
Staphylococcus aureus = assay: Antibacterial activity against wild type methicillin-sensitive Staphylococcus aureus ATCC 29213 assessed as reduction in bacterial growth by CLSI based broth microdilution method; format: functional
Streptococcus pneumoniae = assay: Antibacterial activity against Streptococcus pneumoniae ATCC 49619 assessed as reduction in bacterial growth by CLSI based broth microdilution method; format: functional
Escherichia coli = assay: Antibacterial activity against Escherichia coli ATCC 25922 assessed as reduction in bacterial growth by CLSI based broth microdilution method; format: functional
Haemophilus influenzae = assay: Antibacterial activity against Haemophilus influenzae ATCC 49247 assessed as reduction in bacterial growth by CLSI based broth microdilution method; format: functional
[1] = Thermodynamic solubility of the compound; format: physicochemical; conditions: read-out: Therm_solubility

Row | SMILES | MIC (Staphylococcus aureus) [µg/mL] | MIC (Streptococcus pneumoniae) [µg/mL] | MIC (Escherichia coli) [µg/mL] | MIC (Haemophilus influenzae) [µg/mL] | solubility thermodynamic [1] [µg/mL]
1 | Cc1nc2c(=O)n(C3CC3)c3c(Cl)c(N4CC[C@H](CN)C4)c(F)cc3c2o1 | 0.12 (≈ 0.307 µM) | 0.12 (≈ 0.307 µM) | 0.5 (≈ 1.28 µM) | 1 (≈ 2.56 µM) | 601 (≈ 1540 µM)
2 | Cc1nc2c(=O)n(C3CC3)c3c(Cl)c(N4CCC(N(C)C)C4)c(F)cc3c2o1 (stereo unspecified) | 4 (≈ 9.88 µM) | 4 (≈ 9.88 µM) | 4 (≈ 9.88 µM) | 8 (≈ 19.8 µM) | 
3 | Cc1nc2c(=O)n(C3CC3)c3c(Cl)c(N4CC[C@@H](CN)C4)c(F)cc3c2o1 | 0.12 (≈ 0.307 µM) | 0.12 (≈ 0.307 µM) | 1 (≈ 2.56 µM) |  | 950 (≈ 2430 µM)
4 | Cc1nc2c(=O)n(C3CC3)c3cc(N4CCC(N)CC4)c(F)cc3c2o1 | 1 (≈ 2.81 µM) | 1 (≈ 2.81 µM) | 2 (≈ 5.61 µM) | 1 (≈ 2.81 µM) | 1400 (≈ 3940 µM)
5 | Cc1nc2c(=O)n(C3CC3)c3cc(N4CC[C@H](CN)C4)c(F)cc3c2o1 | 1 (≈ 2.81 µM) | 0.5 (≈ 1.4 µM) | 2 (≈ 5.61 µM) | 8 (≈ 22.4 µM) | 1400 (≈ 3940 µM)
6 | Cc1nc2c(=O)n(C3CC3)c3c(Cl)c(N4C[C@@H](C)N[C@@H](C)C4)c(F)cc3c2o1 | 8 (≈ 19.8 µM) | 16 (≈ 39.5 µM) | 4 (≈ 9.88 µM) | 8 (≈ 19.8 µM) | 543 (≈ 1340 µM)
7 | Cc1nc2c(=O)n(C3CC3)c3cc(N4CCC(CN)C4)c(F)cc3c2o1 (stereo unspecified) | 0.5 (≈ 1.4 µM) | 0.5 (≈ 1.4 µM) | 2 (≈ 5.61 µM) | 8 (≈ 22.4 µM) | 
8 | Cc1nc2c(=O)n(C3CC3)c3cc(N4CCC(C(C)N)C4)c(F)cc3c2o1 (stereo unspecified) | 1 (≈ 2.7 µM) | 1 (≈ 2.7 µM) | 4 (≈ 10.8 µM) | 4 (≈ 10.8 µM) | 1350 (≈ 3640 µM)
9 | CNC[C@H]1CCN(c2c(F)cc3c4oc(C)nc4c(=O)n(C4CC4)c3c2Cl)C1 | 0.25 (≈ 0.617 µM) | 0.25 (≈ 0.617 µM) | 2 (≈ 4.94 µM) | 1 (≈ 2.47 µM) | 
10 | Cc1nc2c(=O)n(C3CC3)c3cc(N4CC[C@@H](C(C)(C)N)C4)c(F)cc3c2o1 | 2 (≈ 5.2 µM) | 2 (≈ 5.2 µM) | 8 (≈ 20.8 µM) | 16 (≈ 41.6 µM) | 1350 (≈ 3520 µM)
